Data: patent US20200131669A1, “CYCLIC PEPTIDE COMPOUND HAVING HIGH MEMBRANE PERMEABILITY, AND LIBRARY CONTAINING SAME” (Chugai Seiyaku Kabushiki Kaisha, priority 2017, published 2020)
Starred links: 1 amine or outer side, 2 acyl side, 3 side chain; linkers in the order of their positions; H or OH if unused. Positions of bridges follow the written chain, without caps; N, C: chain ends. Non-standard residues stand in square brackets, D forms with d. Residues, ends and D or L forms follow the SMILES beside them. *: point of attachment. Glu(NHSO2Me) = CS(=O)(=O)NC(=O)CC[C@H](N)C(=O)O; Phe(4-CF3) = N[C@@H](Cc1ccc(C(F)(F)F)cc1)C(=O)O; NMeAla(4-thiazolyl) = CN[C@@H](Cc1cscn1)C(=O)O; 3Pal(6-NMe2) = CN(C)c1ccc(C[C@H](N)C(=O)O)cn1; NMePhe(3-Cl) = CN[C@@H](Cc1cccc(Cl)c1)C(=O)O; X15 = CN([C@H](CCN1CCOCC1)C(=O)[*:2])[*:1]; Tyr(3-F) = N[C@@H](Cc1ccc(O)c(F)c1)C(=O)O; Gly(NCH2CH2Ph) = O=C(O)CNCCc1ccccc1; Gly(N-(CH2)2OEt) = CCOCCNCC(=O)O; NMeF = CN[C@@H](Cc1ccccc1)C(=O)O; NMeGABA = CN(CCCC(=O)[*:2])[*:1]; NMeI = CC[C@H](C)[C@H](NC)C(=O)O; hPhe = N[C@@H](CCc1ccccc1)C(=O)O; Butyl(3-Me,3-OH) = CC(C)(O)CC*; NMeD = CN[C@@H](CC(=O)O)C(=O)O; NMeL = CN[C@@H](CC(C)C)C(=O)O; Propyl(2R-OH) = C[C@@H](O)C*; NMeV = CN[C@H](C(=O)O)C(C)C; NMeAbu = CC[C@H](NC)C(=O)O; Pip = O=C(O)[C@@H]1CCCCN1; NMeA = CN[C@@H](C)C(=O)O; Piperidide = C1CCN(*)CC1; dNMeA = CN[C@H](C)C(=O)O; Abu = CC[C@H](N)C(=O)O; Me2NCH2CH2 = CN(C)CC*; NBuGly = CCCCNCC(=O)O; Isopentyl = CC(C)CC*; NPrGly = CCCNCC(=O)O; Sar = CNCC(=O)O; tBu = CC(C)(C)*; Propyl = CCC*

assay: Caco-2 membrane permeability, improved method as used in the following Examples (96-well, 20 to 24 h preincubation); assay type: in vitro ADME; details: human, Caco-2, Caco-2
How it was run: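 Papp (cm/sec) was derived from LC/MS of basal samples collected 180 min after apical dosing in FaSSIF/HBSS pH 6.0 with 1% DMSO, against a basal HBSS pH 7.4 receiver containing 4% BSA. Three-week Caco-2 cultures were first preincubated with compound in DMEM+FaSSIF at 37 °C for 20–24 h.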

Structure (SMILES)	Papp A→B at 180 min
CCCCN1CC(=O)N(C)[C@@H](CC(C)C)C(=O)N[C@@H](COC(C)(C)C)C(=O)N(C)[C@@H](Cc2ccccc2)C(=O)N(C)[C@@H](C(C)C)C(=O)N[C@H](C(=O)N2CCCCC2)CC(=O)N[C@H](C(C)C)C(=O)N(C)[C@@H](Cc2ccccc2)C(=O)N[C@@H](CCC(=O)NS(C)(=O)=O)C(=O)N(C)[C@@H](CC(C)C)C(=O)N[C@@H](CC(C)C)C1=O [pd67] ([dV][NMeF][Glu(NHSO2Me)][NMeL]L[NBuGly][NMeL]S(tBu)[NMeF][NMeV]D-Piperidide; lactam N-11)	0.06 ×10⁻⁶ cm/s
CCCCN1CC(=O)N(C)[C@H](CCN2CCOCC2)C(=O)N[C@H](C(=O)N2CCCCC2)CC(=O)N(C)[C@@H](C)C(=O)N[C@@H](CC(C)C)C(=O)N(C)[C@@H](CC(C)C)C(=O)N(C)[C@@H](Cc2ccccc2)C(=O)N[C@@H](CC(C)C)C(=O)N(C)[C@@H](Cc2ccccc2)C(=O)N(C)[C@@H](CC(C)C)C(=O)N[C@@H]([C@@H](C)O)C1=O [pd454] ([NMeA]L[NMeL][NMeF]L[NMeF][NMeL]T[NBuGly][X15]D-Piperidide; lactam N-11)	1.2 ×10⁻⁶ cm/s
CCCCN1CC(=O)N(C)[C@@H](CC(C)C)C(=O)N[C@H](C(=O)N2CCCCC2)CC(=O)N(C)[C@@H](CC)C(=O)N[C@@H](CC(C)C)C(=O)N(C)[C@@H](CC(C)C)C(=O)N(C)[C@@H](Cc2ccccc2)C(=O)N[C@@H](CC)C(=O)N(C)[C@@H](Cc2ccccc2)C(=O)N(CCOCC)CC(=O)N[C@@H]([C@@H](C)O)C1=O [pd419] ([NMeAbu]L[NMeL][NMeF][Abu][NMeF][Gly(N-(CH2)2OEt)]T[NBuGly][NMeL]D-Piperidide; lactam N-11)	2.3 ×10⁻⁶ cm/s
CC(C)C[C@H]1C(=O)N[C@@H](COC(C)(C)C)C(=O)N(C)[C@@H](Cc2ccccc2)C(=O)N(C)[C@@H](CC(C)C)C(=O)N[C@H](C(=O)N2CCCCC2)CC(=O)N[C@H](C(C)C)C(=O)N(C)[C@@H](CC(C)C)C(=O)N[C@@H](CCc2ccccc2)C(=O)N(C)[C@@H](CC(C)C)C(=O)N[C@@H]([C@@H](C)O)C(=O)N(C)CC(=O)N1C [pd315] ([dV][NMeL][hPhe][NMeL]T[Sar][NMeL]S(tBu)[NMeF][NMeL]D-Piperidide; lactam N-11)	1.7 ×10⁻⁶ cm/s
CCCOC[C@@H]1NC(=O)[C@H](Cc2ccccc2)N(C)C(=O)[C@@H](C(C)C)NC(=O)C[C@@H](C(=O)N2CCCCC2)NC(=O)[C@H](CC(C)C)N(C)C(=O)[C@H](Cc2ccccc2)N(C)C(=O)[C@H](COC(C)(C)C)NC(=O)[C@H](CC(C)C)N(C)C(=O)CN(C)C(=O)[C@H]([C@@H](C)O)NC(=O)[C@H](CC(C)C)N(C)C1=O [pd327] ([dV][NMeF]S(Propyl)[NMeL]T[Sar][NMeL]S(tBu)[NMeF][NMeL]D-Piperidide; lactam N-11)	3.1 ×10⁻⁶ cm/s
CC[C@@H]1NC(=O)[C@H](Cc2ccccc2)N(C)C(=O)[C@H](CC(C)C)N(C)C(=O)[C@H](CC(C)C)NC(=O)[C@H](CC)N(C)C(=O)C[C@@H](C(=O)N2CCCCC2)NC(=O)[C@H](CC(C)C)N(C)C(=O)CN(C)C(=O)[C@H]([C@@H](C)O)NC(=O)CN(CCc2ccccc2)C(=O)[C@H](CC(C)C)N(C)C1=O [pd415] ([NMeAbu]L[NMeL][NMeF][Abu][NMeL][Gly(NCH2CH2Ph)]T[Sar][NMeL]D-Piperidide; lactam N-11)	3.3 ×10⁻⁶ cm/s
CC(C)CCOC[C@@H]1NC(=O)[C@H](CC(C)C)N(C)C(=O)CN(C)C(=O)[C@H]([C@@H](C)O)NC(=O)[C@H](CC(C)C)N(C)C(=O)[C@H](COCCC(C)(C)O)NC(=O)[C@H](Cc2ccccc2)N(C)C(=O)[C@@H](C(C)C)NC(=O)C[C@@H](C(=O)N2CCCCC2)NC(=O)[C@H](CC(C)C)N(C)C(=O)[C@H](Cc2ccccc2)N(C)C1=O [pd433] ([dV][NMeF]S(Butyl(3-Me,3-OH))[NMeL]T[Sar][NMeL]S(Isopentyl)[NMeF][NMeL]D-Piperidide; lactam N-11)	1.4 ×10⁻⁶ cm/s
CC(C)CCOC[C@@H]1NC(=O)[C@H](C)N(C)C(=O)C[C@@H](C(=O)N2CCCCC2)NC(=O)[C@H](CC(C)C)N(C)C(=O)CN(C)C(=O)[C@H]([C@@H](C)O)NC(=O)[C@H](CC(C)C)N(C)C(=O)[C@H](Cc2ccccc2)N(C)C(=O)[C@H](C(C)C)NC(=O)[C@H](Cc2ccccc2)N(C)C(=O)[C@H](CC(C)C)N(C)C1=O [pd304] ([NMeA]S(Isopentyl)[NMeL][NMeF]V[NMeF][NMeL]T[Sar][NMeL]D-Piperidide; lactam N-11)	2.2 ×10⁻⁶ cm/s
CCCN1CC(=O)N(C)[C@@H](CC(C)C)C(=O)N[C@H](C(=O)N2CCCCC2)CC(=O)N(C)[C@@H](C)C(=O)N[C@@H](COC[C@@H](C)O)C(=O)N(C)[C@@H](CC(C)C)C(=O)N(C)[C@@H](Cc2cccc(Cl)c2)C(=O)N[C@@H](CC(C)C)C(=O)N(C)[C@@H](Cc2ccccc2)C(=O)N(C)[C@@H]([C@@H](C)CC)C(=O)N[C@@H]([C@@H](C)O)C1=O [pd425] ([NMeA]S(Propyl(2R-OH))[NMeL][NMePhe(3-Cl)]L[NMeF][NMeI]T[NPrGly][NMeL]D-Piperidide; lactam N-11)	1.2 ×10⁻⁶ cm/s
CCCCN1CC(=O)N(C)[C@@H](C(C)C)C(=O)N[C@H](C(=O)N2CCCCC2)CC(=O)N(C)[C@@H](C)C(=O)N[C@@H](COCCN(C)C)C(=O)N(C)[C@@H](CC(C)C)C(=O)N(C)[C@@H](Cc2ccccc2)C(=O)N[C@@H](CC(C)C)C(=O)N(C)[C@@H](Cc2ccccc2)C(=O)N(C)[C@@H](CC(C)C)C(=O)N[C@@H]([C@@H](C)O)C1=O [pd56] ([NMeA]S(Me2NCH2CH2)[NMeL][NMeF]L[NMeF][NMeL]T[NBuGly][NMeV]D-Piperidide; lactam N-11)	0.12 ×10⁻⁶ cm/s

same assay, conditions: human, Caco-2, Caco-2 (cm/sec)

Structure (SMILES)	Papp A→B at 180 min
CC(C)C[C@H]1C(=O)N[C@@H](COC(C)(C)C)C(=O)N(C)[C@@H](Cc2ccccc2)C(=O)N(C)[C@@H](CC(C)C)C(=O)N[C@H](C(=O)N2CCCCC2)CC(=O)N[C@H](C(C)C)C(=O)N(C)[C@@H](Cc2ccccc2)C(=O)N[C@@H](C(C)C)C(=O)N(C)[C@@H](Cc2ccccc2)C(=O)N[C@@H]([C@@H](C)O)C(=O)N(C)CC(=O)N1C [pd210] ([dV][NMeF]V[NMeF]T[Sar][NMeL]S(tBu)[NMeF][NMeL]D-Piperidide; lactam N-11)	1.6 ×10⁻⁶ cm/s
CC(C)C[C@H]1C(=O)N[C@H](C(=O)N2CCCCC2)CC(=O)N[C@H](C)C(=O)N(C)[C@@H](CC(C)C)C(=O)N[C@@H](COC(C)(C)C)C(=O)N(C)[C@@H](CC(C)C)C(=O)N2CCCC[C@H]2C(=O)N(C)[C@@H](C)C(=O)N[C@@H]([C@@H](C)O)C(=O)N(C)[C@@H](Cc2ccccc2)C(=O)N[C@@H](Cc2ccc(C(F)(F)F)cc2)C(=O)N1C [pd137] ([dA][NMeL]S(tBu)[NMeL][Pip][NMeA]T[NMeF][Phe(4-CF3)][NMeL]D-Piperidide; lactam N-11)	2.2 ×10⁻⁶ cm/s
CC(C)C[C@H]1C(=O)N[C@H](C(=O)N2CCCCC2)CC(=O)N(C)CCCC(=O)N(C)[C@@H](CC(C)C)C(=O)N[C@@H](Cc2ccc(O)c(F)c2)C(=O)N(C)[C@@H](CC(C)C)C(=O)N(C)[C@@H](Cc2ccccc2)C(=O)N[C@@H](COC(C)(C)C)C(=O)N(C)[C@@H](CC(C)C)C(=O)N[C@@H]([C@@H](C)O)C(=O)N(C)CC(=O)N1C [pd114] ([NMeGABA][NMeL][Tyr(3-F)][NMeL][NMeF]S(tBu)[NMeL]T[Sar][NMeL]D-Piperidide; lactam N-11)	0.17 ×10⁻⁶ cm/s
CC(C)C[C@H]1C(=O)N[C@@H](COC(C)(C)C)C(=O)N(C)[C@@H](Cc2ccccc2)C(=O)N(C)[C@@H](CC(C)C)C(=O)N(C)[C@H](C(=O)N2CCCCC2)CC(=O)N(C)[C@H](C)C(=O)N(C)[C@@H](Cc2cccc(Cl)c2)C(=O)N[C@@H](C(C)C)C(=O)N(C)[C@@H](C(C)C)C(=O)N[C@@H]([C@@H](C)O)C(=O)N(C)CC(=O)N1C [pd168] ([dNMeA][NMePhe(3-Cl)]V[NMeV]T[Sar][NMeL]S(tBu)[NMeF][NMeL][NMeD]-Piperidide; lactam N-11)	2.3 ×10⁻⁶ cm/s
CC(C)C[C@@H]1NC(=O)[C@H](Cc2ccccc2)N(C)C(=O)[C@H](C)N(C)C(=O)C[C@@H](C(=O)N2CCCCC2)N(C)C(=O)[C@H](Cc2ccccc2)N(C)C(=O)[C@H](Cc2ccccc2)N(C)C(=O)[C@H](COC(C)(C)C)NC(=O)[C@H](C(C)C)N(C)C(=O)CN(C)C(=O)[C@H]([C@@H](C)O)NC(=O)[C@H](CC(C)C)N(C)C1=O [pd202] ([NMeA][NMeF]L[NMeL]T[Sar][NMeV]S(tBu)[NMeF][NMeF][NMeD]-Piperidide; lactam N-11)	2.1 ×10⁻⁶ cm/s

same assay, conditions: human, Caco-2; Papp; Table 24, sequences where ARC = 4; read-out: Caco-2

Structure (SMILES)	Papp A→B at 180 min
CC(C)C[C@@H]1NC(=O)[C@H](C)N(C)C(=O)C[C@@H](C(=O)N2CCCCC2)NC(=O)[C@H](CC(C)C)N(C)C(=O)CN(C)C(=O)[C@H]([C@@H](C)O)NC(=O)[C@H](Cc2cscn2)N(C)C(=O)[C@H](Cc2ccccc2)N(C)C(=O)[C@H](Cc2ccccc2)NC(=O)[C@H](Cc2ccccc2)NC(=O)[C@H](CC(C)C)N(C)C1=O [pd236] ([NMeA]L[NMeL]FF[NMeF][NMeAla(4-thiazolyl)]T[Sar][NMeL]D-Piperidide; lactam N-11)	0.096 ×10⁻⁶ cm/s

same assay, conditions: human; Papp, Caco-2 membrane permeability, improved method; read-out: Caco-2

Structure (SMILES)	Papp A→B at 180 min
CCCCN1CC(=O)N(C)[C@@H](CC(C)C)C(=O)N[C@H](C(=O)N2CCCCC2)CC(=O)N(C)[C@@H](C)C(=O)N[C@@H](Cc2ccc(N(C)C)nc2)C(=O)N(C)[C@@H](CC(C)C)C(=O)N(C)[C@@H](Cc2ccccc2)C(=O)N[C@@H](CC(C)C)C(=O)N(C)[C@@H](C)C(=O)N(C)[C@@H](CC(C)C)C(=O)N[C@@H]([C@@H](C)O)C1=O [pd398] ([NMeA][3Pal(6-NMe2)][NMeL][NMeF]L[NMeA][NMeL]T[NBuGly][NMeL]D-Piperidide; lactam N-11)	2.7 ×10⁻⁶ cm/s
